# Assay results as given in US20120122727A1, “IN VITRO METHOD FOR PREDICTING WHETHER A COMPOUND IS GENOTOXIC IN VIVO” (priority 2009, published 2012).
# System: primary mouse hepatocytes
# Test: Gene expression (Affymetrix Mouse Genome 430 2.0) in primary mouse hepatocytes, true vs false GTX, 24 h and 48 h
# Settings: log2, corrected for vehicle control
smiles,measurement,setting,value
"Nc1ccc([N+](=O)[O-])cc1N [4-NP, 4-Nitro-o-phenylenediamine]",Gene expression data AF000969 (Cadps2),24 h average,−0.6839
same,Gene expression data AF022072 (Grb10),24 h average,0.8486
same,Gene expression data AF065917 (Lif),24 h average,−0.4573
same,Gene expression data AF204959 (Cyp3a25 /// LOC622249),24 h average,−2.025
same,Gene expression data AF297615 (Ggta1),24 h average,−0.2797
same,Gene expression data AI594683 (Dmn),24 h average,−0.3517
same,Gene expression data AI596632 (Ptprg /// LOC632664),24 h average,−0.4962
same,Gene expression data AI987929 (Ndrg1),24 h average,2.65
same,Gene expression data AK004419 (Fbxl17),24 h average,−0.0775
same,Gene expression data AK005731 (1700007K13Rik),24 h average,−0.5111
same,Gene expression data AK007766 (1810044A24Rik),24 h average,−0.1697
same,Gene expression data AK007854 (1810053B23Rik),24 h average,−1.736
same,Gene expression data AK009736 (Gpr137b /// LOC664862 /// LOC673335),24 h average,1.582
same,Gene expression data AK010447 (Smyd3),24 h average,0.4967
same,Gene expression data AK014608 (4632434l11Rik),24 h average,0.2958
same,Gene expression data AK019979 (2610528E23Rik),24 h average,0.9384
same,Gene expression data AV095209 (Mthfd1l),24 h average,0.9072
same,Gene expression data AV141095 (1110033M05Rik),24 h average,0.1789
same,Gene expression data AV173571 (1700106N22Rik),24 h average,−0.003133
same,Gene expression data AV219418 (Ldhb),24 h average,−1.032
same,Gene expression data AV223474 (Zdhhc14),24 h average,−0.08437
same,Gene expression data AV298304 (Homez),24 h average,−0.5839
same,Gene expression data AV327248 (Zfp365 /// LOC674611),24 h average,−0.08917
same,Gene expression data AV377066 (9130221J18Rik),24 h average,−1.695
same,Gene expression data AW240761 (Tbc1d5),24 h average,0.02697
same,Gene expression data AW543460 (Pard3),24 h average,0.9127
same,Gene expression data AW543723,24 h average,0.6706
same,Gene expression data AW986246 (Maoa),24 h average,1.7055
same,Gene expression data BB027848 (4732466D17Rik),24 h average,−1.7858
same,Gene expression data BB043558 (9230114K14Rik),24 h average,−0.4159
same,Gene expression data BB275142 (AW456874),24 h average,−0.4184
same,Gene expression data BB308836 (Ppm1l),24 h average,0.03763
same,Gene expression data BB318221 (Zdhhc14),24 h average,0.0942
same,Gene expression data BB463610 (4632434l11Rik),24 h average,0.2106
same,Gene expression data BB526605 (Mipol1),24 h average,1.641
same,Gene expression data BB770528 (Rai2),24 h average,−1.122
same,Gene expression data BB821363 (Scfd2),24 h average,−0.219
same,Gene expression data BC004827 (Psat1),24 h average,0.5395
same,Gene expression data BC008626 (Icam1),24 h average,−2.248
same,Gene expression data BC010462 (BC010462),24 h average,−0.8654
same,Gene expression data BC012247 (Dcxr),24 h average,−1.5
same,Gene expression data BC012260 (Psmf1),24 h average,0.1189
same,Gene expression data BC015270 (Hist2h3c2),24 h average,−0.7846
same,Gene expression data BC016073 (Cdkal1),24 h average,0.3627
same,Gene expression data BC016265 (Ube2e2),24 h average,0.03433
same,Gene expression data BC019882 (Acaa1b),24 h average,−1.259
same,Gene expression data BC025501 (Aaas),24 h average,−0.2167
same,Gene expression data BC025837 (Sbk1),24 h average,−0.8181
same,Gene expression data BC025915 (Cova1),24 h average,0.3343
same,Gene expression data BC026422 (Tgm1),24 h average,−0.8176
same,Gene expression data BF719766 (Thyn1),24 h average,−0.2859
same,Gene expression data BG065754 (Ccng1),24 h average,−0.2503
same,Gene expression data BG066903 (Kif16b),24 h average,1.005
same,Gene expression data BG069873 (Gnb1l),24 h average,−0.1326
same,Gene expression data BG070887 (Gtdc1),24 h average,0.3432
same,Gene expression data BG076151 (Ppm1d),24 h average,−0.2933
same,Gene expression data BG261907 (Large),24 h average,0.3643
same,Gene expression data BI651416 (Cdc42bpg),24 h average,−0.0339
same,Gene expression data BI660702 (Ell3),24 h average,−0.609
same,Gene expression data BM198879 (Ercc5),24 h average,−0.3288
same,Gene expression data BM230508 (A030007D23Rik),24 h average,−0.6065
same,Gene expression data NM_007987 (Fas),24 h average,−1.231
same,Gene expression data NM_008522 (Ltf),24 h average,−0.3018
same,Gene expression data NM_008576 (Abcc1),24 h average,1.696
same,Gene expression data NM_011176 (St14),24 h average,−0.5717
same,Gene expression data NM_011316 (Saa4),24 h average,−0.5909
same,Gene expression data NM_012006 (Acot1),24 h average,−1.4501
same,Gene expression data NM_013866 (Zfp385),24 h average,−0.2808
same,Gene expression data NM_018770 (Igsf4a),24 h average,0.3868
same,Gene expression data NM_021451 (Pmaip1),24 h average,−1.505
same,Gene expression data NM_025770 (Atg10),24 h average,1.051
same,Gene expression data NM_028803 (Gbe1),24 h average,0.3633
same,Gene expression data NM_030697 (Ankrd47),24 h average,0.1816
same,Gene expression data NM_053168 (Trim11),24 h average,−0.1598
same,Gene expression data NM_134188 (Acot2),24 h average,−0.7637
same,Gene expression data Y15910 (Diap2),24 h average,−0.5398
same,Gene expression AA561726 average,48 h,−0.08
same,Gene expression AF000969 average,48 h,−0.8202
same,Gene expression AF022072 average,48 h,0.6062
same,Gene expression AF033112 average,48 h,0.152
same,Gene expression AF055573 average,48 h,−0.1973
same,Gene expression AF069954 average,48 h,−0.4429
same,Gene expression AF297615 average,48 h,−1.352
same,Gene expression AF335325 average,48 h,0.5071
same,Gene expression AI594683 average,48 h,−0.4763
same,Gene expression AI747296 average,48 h,−0.3288
same,Gene expression AK005731 average,48 h,−0.9581
same,Gene expression AK007854 average,48 h,−0.1411
same,Gene expression AK010447 average,48 h,0.5956
same,Gene expression AK010738 average,48 h,−0.1569
same,Gene expression AK014608 average,48 h,−0.3072
same,Gene expression AK017734 average,48 h,−1.2326
same,Gene expression AK018383 average,48 h,−0.5006
same,Gene expression AK019979 average,48 h,0.04087
same,Gene expression AV095209 average,48 h,0.6413
same,Gene expression AV141095 average,48 h,−0.1051
same,Gene expression AV173869 average,48 h,0.1411
same,Gene expression AV216768 average,48 h,−0.004067
same,Gene expression AV219418 average,48 h,0.6295
same,Gene expression AV221299 average,48 h,0.7477
same,Gene expression AV246296 average,48 h,−1.046
same,Gene expression AV251625 average,48 h,−0.1615
same,Gene expression AV254764 average,48 h,−0.4499
same,Gene expression AV327248 average,48 h,−0.01493
same,Gene expression BB009155 average,48 h,−0.6079
same,Gene expression BB027848 average,48 h,−1.954
same,Gene expression BB043558 average,48 h,−0.2736
same,Gene expression BB046347 average,48 h,−0.8045
same,Gene expression BB140436 average,48 h,2.071
same,Gene expression BB204486 average,48 h,−0.0837
same,Gene expression BB223872 average,48 h,−0.6536
same,Gene expression BB246912 average,48 h,0.3026
same,Gene expression BB275142 average,48 h,−0.1963
same,Gene expression BB458460 average,48 h,0.1645
same,Gene expression BB463610 average,48 h,0.03727
same,Gene expression BB730977 average,48 h,0.992
same,Gene expression BB743970 average,48 h,−0.1636
same,Gene expression BB770528 average,48 h,−0.9985
same,Gene expression BB781615 average,48 h,−0.7501
same,Gene expression BC003284 average,48 h,−0.5876
same,Gene expression BC004827 average,48 h,−0.2247
same,Gene expression BC005552 average,48 h,0.4521
same,Gene expression BC006713 average,48 h,−0.7469
same,Gene expression BC010318 average,48 h,0.1861
same,Gene expression BC012247 average,48 h,−0.6355
same,Gene expression BC012955 average,48 h,0.1051
same,Gene expression BC013893 average,48 h,−1.496
same,Gene expression BC017615 average,48 h,−1.535
same,Gene expression BC019379 average,48 h,−0.5665
same,Gene expression BC019882 average,48 h,−2.4942
same,Gene expression BC021352 average,48 h,−1.28
same,Gene expression BC022148 average,48 h,−1.1322
same,Gene expression BC025169 average,48 h,0.3712
same,Gene expression BC026131 average,48 h,0.2124
same,Gene expression BC027026 average,48 h,0.05273
same,Gene expression BC027121 average,48 h,−0.2406
same,Gene expression BC027185 average,48 h,−1.382
same,Gene expression BE956581 average,48 h,0.0346
same,Gene expression BF719766 average,48 h,−0.5024
same,Gene expression BG065754 average,48 h,−0.3381
same,Gene expression BG066491 average,48 h,−0.8219
same,Gene expression BG076151 average,48 h,−0.6573
same,Gene expression BG076333 average,48 h,0.8731
same,Gene expression BG797099 average,48 h,−0.06697
same,Gene expression BG967046 average,48 h,−0.6324
same,Gene expression BI651416 average,48 h,−0.02873
same,Gene expression BI966443 average,48 h,0.2259
same,Gene expression BM198879 average,48 h,−0.4213
same,Gene expression BM200015 average,48 h,−0.4429
same,Gene expression BM230508 average,48 h,−0.9731
same,Gene expression BM936480 average,48 h,−0.412
same,Gene expression BQ174991 average,48 h,0.4017
same,Gene expression L21027 average,48 h,−0.03073
same,Gene expression NM_007556 average,48 h,0.4274
same,Gene expression NM_007980 average,48 h,−1.581
same,Gene expression NM_007987 average,48 h,−0.8469
same,Gene expression NM_008522 average,48 h,−0.2393
same,Gene expression NM_008935 average,48 h,−1.002
same,Gene expression NM_009897 average,48 h,−0.01903
same,Gene expression NM_011075 average,48 h,−1.008
same,Gene expression NM_011176 average,48 h,−1.635
same,Gene expression NM_011316 average,48 h,−0.9295
same,Gene expression NM_012006 average,48 h,−0.006733
same,Gene expression NM_013642 average,48 h,1.007
same,Gene expression NM_013738 average,48 h,−1.171
same,Gene expression NM_013929 average,48 h,0.1753
same,Gene expression NM_018881 average,48 h,−0.2965
same,Gene expression NM_019738 average,48 h,−1.132
same,Gene expression NM_030697 average,48 h,−0.3339
same,Gene expression NM_053122 average,48 h,−0.09647
same,Gene expression NM_134147 average,48 h,0.01433
same,Gene expression NM_134188 average,48 h,−0.4402
same,Gene expression X62701 average,48 h,0.7376
